Results from ChEMBL document CHEMBL3797079, “Synergistic reduction of HIV-1 infectivity by 5-azacytidine and inhibitors of ribonucleotide reductase” (Bioorg Med Chem, 2016).
Calls of active or inactive are those of the source. No cut-off for these calls is given here.

Target: Human immunodeficiency virus type 1 reverse transcriptase (Human immunodeficiency virus 1) (UniProt Q72547)
Experiment: Inhibition of HIV-1 reverse transcriptase assessed as inhibition of primer extension using 5' 32P-end-labeled 17-mer DNA/40-mer RNA as primer/template up to 1 mM measured after 5 mins by PAGE analysis

inhibition: inactive
Compound: Nc1ncn([C@H]2C[C@H](O)[C@@H](COP(=O)(O)OP(=O)(O)OP(=O)(O)O)O2)c(=O)n1
